Literature values, collected in US20240278494A1, “THREE-DIMENSIONAL ADDITIVE FABRICATION WITH SUPPORT FLUID” (GEORGIA TECH RESEARCH CORPORATION, priority 2021, published 2024).
Where two headings read alike, the source gives them in different places.

Experiments:
[1] = for ρ: Table 2, resin additives; for Density: Table 1, acrylate monomers
[2] = not given; remark: listed apart in the source
[3] = Table 2, resin additives

| Compound | ρ [1] [g/mL] | Viscosity (Table 2, resin additives) [cP] | Water solubility ([2]; Table 2, resin additives) [µg/mL] | γ (surface tension) [3] [mN/m] | Density [1] [g/mL] | Viscosity (Table 1, acrylate monomers) [cP] | Water solubility ([2]; Table 1, acrylate monomers) [µg/mL] |
| --- | --- | --- | --- | --- | --- | --- | --- |
| C=CC(=O)OC [MA, Methyl Acrylate] | 0.95 | 0.6 | 50000 | – | – | – | – |
| Dimethylbenzene [Xylene] | 0.865 | 0.812 | <100 | 28 | – | – | – |
| COCC(C)OC(C)=O (centres unmarked) [PGMEA, Propylene glycol methyl ether acetate] | 0.962 | 0.8 | 19800 | 26.9 | – | – | – |
| C=C(C)C(=O)OCCOCCOCCOC(=O)C(=C)C [TEGDMA, Triethylene glycol dimethacrylate] | – | – | – | – | 1.072 | 50 | 2410 |
| C1CCC2CCCCC2C1 (centres unmarked) [Decalin, Decahydronaphthalene] | 0.896 | 1.788 | – | – | – | – | – |
| C=CC(=O)OCCCCCCOC(=O)C=C [HDDA, 1,6-Hexanediol diacrylate] | – | – | – | – | 1.02 | 9 | 100 |
| C=C(C)C(=O)OC [MMA, Methyl Methacrylate] | 0.94 | 0.6 | – | 31.4 | – | – | – |
| Urethane dimethacrylate [UDMA] | – | – | – | – | 1.129 | 6.75 | – |
| CCCCCCCC/C=C\CCCCCCCC(=O)O [OA, Oleic Acid] | 0.895 | 27.64 | <100 | 31.92 | – | – | – |
| OCCCO [1,3-Propanediol] | 1.0597 | 52 | – | 46.2 | – | – | – |
| C=CC(=O)OCC(CC)CCCC (centres unmarked) [EHA, 2-Ethylhexyl acrylate] | 0.885 | 1.7 | – | 26 | – | – | – |
| C=CC(=O)OCCCC [BA, Butyl Acrylate] | 0.9 | 0.92 | – | 20 | – | – | – |
| CCCCOC(C)=O [n-Butyl Acetate] | 0.8825 | 1.1002 | 680 | 25.3 | – | – | – |
